US10022395B2 (UNIWERSYTET LÓDZKI, priority 2012, dated 2018)
Where “and” joins values, the source holds several entries; their conditions need not be identical. Equal values may be shown once.

Key:
[1] = system: CLL cells (leukemic lymphocytes, MNCs); assay: Mitochondrial membrane potential (CMXRos / anti-glycophorin A-FITC, flow cytometry); format: cell-based, human; conditions: for mean percentage of cells with lower mitochondrial potential (ΔΨm^low/Gly-A^−): 1.6 μM
Excerpt: Mitochondrial membrane potential is an early indicator of apoptosis. CMXRos, i.e. Chloromethyl-X-rosamine (the reagent's name by Mito Tracker Red CMXRos, Molecular Probes, USA), and a monoclonal antibody to glycophorin A conjugated with FITC (the reagent's name of Anti-Glycophorin A FITC by Dako, Denmark) were used for its assessment. CMXRos is a lipophilic cationic dye that accumulates in the mitochondrial matrix of viable cells when there is an electronegative load on the inner surface of the mitochondrial membrane. This asymmetric location of protons along the inner mitochondrial membrane leads to a high mitochondrial membrane potential (ΔΨm) in living cells. A decreased ΔΨm is one of the first symptoms of apoptosis, and in effect lowering of the mitochondrial uptake of CMXRos.
The stock CMXRos solution was prepared by dilution of the substance supplied by the manufacturer in 94 μl. DMSO (dimethylsulphoxide), and stored at […]. Then working solution was prepared also using DMSO (1:10) and stored at 4° C. Mononuclear cells, i.e. leukemic lymphocytes, at 1×10^6 MNCs/ml concentration, were incubated with CMXRos (2.5 μl working solution in 500 μl RPMI 1640 medium) at 37° C. for 30 minutes. […] The samples were next measured using flow cytometry. The percentage of cells not bound to anti-glycophorin A-FITC (ΔΨm^low/GIy-A^− cells), with low mitochondrial potential, was calculated.
All fluorescence measurements were performed by a flow cytometer FACSCalibur (Becton Dickinson, USA) equipped with an argon laser 488nm and computer program CeliQuestPro (Becton Dickinson, USA). Each time 10 000cells were evaluated. The fluorescence was measured using standard emission filters: green—FL1 (wavelength λ=530±20 nm) and red—FL3 (λ>600 nm).

[2] = system: CLL cells (MEC-1); assay: Annexin-V / propidium iodide apoptosis test with 25%, 30%, 40%, 45% maltotriose dendrimers and FA; format: cell-based, human; conditions: 1.6 μM

rituximab
apoptosis-inducing action (mitochondrial potential) ([1]; 10 μg/ml): apoptosis-inducing action in order of spontaneous apoptosis

Nc1nc(F)nc2c1ncn2[C@@H]1O[C@H](CO)[C@@H](O)[C@@H]1O [FA, fludarabine]
mean percentage of cells with lower mitochondrial potential (ΔΨm^low/Gly-A^−) ([1]; 24 h): 52.05%
mean percentage of cells with lower mitochondrial potential (ΔΨm^low/Gly-A^−) ([1]; 48 h): 74.49%
Ann+ IP+ (late apoptosis), mean percentage of cells ([2]; 24 h): 6.51% and 10.83% and 6.50%
Ann+ IP− (early apoptosis), mean percentage of cells ([2]; 24 h): 3.82% and 3.98% and 3.77%
CAI (compensating apoptotic index) ([2]; 24 h): 1.87% and 7.35% and 4.40%
Ann− IP+ (necrosis), mean percentage of cells ([2]; 48 h): 22.82% and 15.00% and 20.27%
CAI (compensating apoptotic index) ([2]; 48 h): 6.98% and 7.80% and 12.83%
